Results reported in patent publication US10227324B2 (Shanghai Haiyan Pharmaceutical Technology Co., Ltd., priority 2014, dated 2019).

Experiments:
T47D cells = assay: Cell inhibitory activity detected by MTT assay, T47D; format: cell-based; conditions: Homo sapiens, T47D, 72 h, read-out: T47D cell (IC50/nM), cell growth inhibition
PI3K-γ kinase (p110γ) = biological target: T1, PI3K-γ kinase (p110γ) (Homo sapiens, UniProt P48736); assay: Determination of PI3K kinase activity (ADP Transcreener, fluorescence polarization); format: biochemical; conditions: Table 1; ATP 10 μM; read-out: PI3K-γ/nM (IC50 of inhibitory activity against PI3K kinase)
T1 construct: purchased Invitrogen PV4786
Method in brief: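 Each 25 μL reaction held PI3K enzyme (p110α/p85α 3 ng, p110β/p85α 60 ng, p110δ/p85α 90 ng, or p110γ 100 ng), 10 μM ATP, 30 μM PIP2:PS and 2% DMSO, incubated 1 h at 25 °C. Compounds were tested in duplicate across a 3-fold series, 0.00046–1 μM as prepared. ADP was detected by Transcreener fluorescence polarization, quantified against an ADP/ATP standard curve, and IC50 fitted.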

MCF-7 cells = assay: Cell inhibitory activity detected by MTT assay, MCF-7; format: cell-based; conditions: Homo sapiens, MCF7, 72 h, read-out: MCF-7 cell (IC50/nM), cell growth inhibition
Method in brief: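 MCF-7 cells in DMEM + 10% FBS were treated after adherence with compounds at 8 concentrations (0.0046–10 μM) for 72 h at 37 °C, 5% CO2.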

T1 sequence (P48736 whole entry): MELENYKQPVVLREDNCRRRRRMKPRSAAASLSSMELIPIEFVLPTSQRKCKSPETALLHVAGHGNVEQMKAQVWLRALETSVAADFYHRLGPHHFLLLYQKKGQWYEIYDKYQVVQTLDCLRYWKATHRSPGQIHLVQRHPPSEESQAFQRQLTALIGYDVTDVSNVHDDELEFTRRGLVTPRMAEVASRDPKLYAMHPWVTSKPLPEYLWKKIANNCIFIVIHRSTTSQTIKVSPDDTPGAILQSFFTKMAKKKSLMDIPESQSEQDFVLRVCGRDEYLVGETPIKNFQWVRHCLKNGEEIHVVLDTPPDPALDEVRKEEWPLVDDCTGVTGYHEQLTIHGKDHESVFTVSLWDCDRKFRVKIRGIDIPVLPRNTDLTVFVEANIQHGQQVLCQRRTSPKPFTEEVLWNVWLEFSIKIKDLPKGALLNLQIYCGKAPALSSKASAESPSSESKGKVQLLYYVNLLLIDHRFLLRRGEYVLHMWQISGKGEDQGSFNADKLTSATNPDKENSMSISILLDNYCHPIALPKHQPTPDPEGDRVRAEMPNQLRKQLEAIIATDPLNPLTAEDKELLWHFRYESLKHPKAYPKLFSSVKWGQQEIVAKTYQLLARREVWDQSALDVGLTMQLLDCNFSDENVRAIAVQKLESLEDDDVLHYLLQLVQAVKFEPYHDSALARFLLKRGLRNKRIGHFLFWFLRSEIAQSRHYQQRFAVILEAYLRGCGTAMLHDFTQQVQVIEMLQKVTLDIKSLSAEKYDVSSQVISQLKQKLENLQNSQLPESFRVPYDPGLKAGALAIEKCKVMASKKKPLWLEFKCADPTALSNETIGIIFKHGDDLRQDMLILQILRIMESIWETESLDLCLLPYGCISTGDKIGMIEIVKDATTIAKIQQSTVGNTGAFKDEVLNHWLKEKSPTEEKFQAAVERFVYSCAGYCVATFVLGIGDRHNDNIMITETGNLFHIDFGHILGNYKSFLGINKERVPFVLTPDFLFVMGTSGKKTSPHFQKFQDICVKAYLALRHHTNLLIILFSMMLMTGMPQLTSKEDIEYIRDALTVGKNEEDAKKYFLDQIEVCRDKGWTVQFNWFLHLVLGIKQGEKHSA

**Q.** What does the source list for `CS(=O)(=O)C1(c2cc(-c3cnc(N)cc3C(F)(F)F)nc(N3CCOCC3)n2)CCC1` [Compound S-4]?
**A.** IC50 (T47D cells): 124 nM; IC50 (PI3K-γ kinase (p110γ)): 354 nM

**Q.** `C[C@H]1COCCN1c1nc(-c2cnc(N)cc2C(F)(F)F)cc(C2(S(C)(=O)=O)CCC2)n1` [Compound S-9] was tested. Which IC50 (T47D cells) did it give?
**A.** The IC50 was 93 nM.

**Q.** What about the IC50 (PI3K-γ kinase (p110γ)) of the same molecule?
**A.** Its IC50 is 155 nM.

**Q.** And the IC50 (MCF-7 cells)?
**A.** The IC50 was 78 nM.

**Q.** Which results are given for `CS(=O)(=O)C1(c2cc(-c3cnc(N)cc3C(F)(F)F)nc(N3CCOCC3)n2)CCCC1` [Compound S-10]?
**A.** IC50 (T47D cells): 218 nM; IC50 (PI3K-γ kinase (p110γ)): 592 nM; IC50 (MCF-7 cells): 340 nM

**Q.** How did the IC50 (T47D cells) turn out when `CC(C)S(=O)(=O)C1(c2cc(-c3cnc(N)cc3C(F)(F)F)nc(N3CCOC[C@@H]3C)n2)CCC1` [Compound S-13, (S)-5-(6-(1-(isopropylsulfonyl)cyclobutyl)-2-(3-methylmorpholino)pyrimidin-4-yl)-4-(trifluoromethyl)pyridin-2-amine] was run?
**A.** The IC50 was 244 nM.

**Q.** What about the IC50 (PI3K-γ kinase (p110γ)) of the same molecule?
**A.** The IC50 was over 3000 nM.

**Q.** And the IC50 (MCF-7 cells)?
**A.** The IC50 was 153 nM.

**Q.** Which IC50 (T47D cells) does the source give for `CC(C)S(=O)(=O)C1(c2cc(-c3cnc(N)cc3C(F)(F)F)nc(N3CCOCC3)n2)CC1` [Compound S-18] here?
**A.** The IC50 was 160 nM.

**Q.** And the IC50 (PI3K-γ kinase (p110γ))?
**A.** Its IC50 is 957 nM.

**Q.** What about the IC50 (MCF-7 cells) of the same molecule?
**A.** Its IC50 is 437 nM.

**Q.** Which results are given for `CC(C)S(=O)(=O)C1(c2cc(-c3cnc(N)cc3C(F)(F)F)nc(N3CCOCC3)n2)CCC1` [Compound S-19]?
**A.** IC50 (T47D cells): 178 nM; IC50 (PI3K-γ kinase (p110γ)): > 3000 nM

**Q.** With `Nc1cc(C(F)(F)F)c(-c2cc(C3(S(=O)(=O)c4ccccc4)CCC3)nc(N3CCOCC3)n2)cn1` [Compound S-20] as the molecule, how does the IC50 (T47D cells) read?
**A.** Its IC50 is 332 nM.

**Q.** What about the IC50 (PI3K-γ kinase (p110γ)) of the same molecule?
**A.** The IC50 was 1160 nM.

**Q.** For `CCS(=O)(=O)C1(c2cc(-c3cnc(N)cc3C(F)(F)F)nc(N3CCOC[C@@H]3C)n2)CCC1` [Compound S-23], which IC50 (T47D cells) is on record?
**A.** The IC50 was 20 nM.

**Q.** What about the IC50 (PI3K-γ kinase (p110γ)) of the same molecule?
**A.** Its IC50 is 525 nM.

**Q.** What about the IC50 (MCF-7 cells) of the same molecule?
**A.** The IC50 was 246 nM.

**Q.** `C[C@H]1COCCN1c1nc(-c2cnc(N)nc2C(F)(F)F)cc(C2(S(C)(=O)=O)CCC2)n1` [Compound S-30] was tested. Which IC50 (T47D cells) did it give?
**A.** Its IC50 is 100 nM.

**Q.** And the IC50 (PI3K-γ kinase (p110γ))?
**A.** Its IC50 is 141 nM.

**Q.** What about the IC50 (MCF-7 cells) of the same molecule?
**A.** The IC50 was 101 nM.

**Q.** `C[C@H]1COCCN1c1nc(-c2cnc(N)cc2Cl)cc(C2(S(C)(=O)=O)CCC2)n1` [Compound S-31] was tested. Which IC50 (T47D cells) did it give?
**A.** The IC50 was 73 nM.

**Q.** What about the IC50 (PI3K-γ kinase (p110γ)) of the same molecule?
**A.** Its IC50 is 148 nM.

**Q.** What about the IC50 (MCF-7 cells) of the same molecule?
**A.** Its IC50 is 45 nM.

**Q.** `C[C@H]1COCCN1c1nc(-c2ccc(N)nc2)cc(C2(S(C)(=O)=O)CCC2)n1` [Compound S-32] was tested. Which IC50 (T47D cells) did it give?
**A.** Its IC50 is 95 nM.

**Q.** And the IC50 (PI3K-γ kinase (p110γ))?
**A.** The IC50 was 923 nM.

**Q.** What about the IC50 (MCF-7 cells) of the same molecule?
**A.** The IC50 was 73 nM.

**Q.** What does the source list for `C[C@H]1COCCN1c1nc(-c2cnc(N)nc2)cc(C2(S(C)(=O)=O)CCC2)n1` [Compound S-33]?
**A.** IC50 (T47D cells): 120 nM; IC50 (PI3K-γ kinase (p110γ)): 112 nM; IC50 (MCF-7 cells): 79 nM

**Q.** For `CS(=O)(=O)C1(c2cc(-c3cnc(N)cc3Cl)nc(N3CCOCC3)n2)CC1` [Compound S-37, 4-chloro-5-(6-(1-(methylsulfonyl)cyclopropyl)-2-morpholinopyrimidin-4-yl)pyridin-2-amine], which IC50 (T47D cells) is on record?
**A.** The IC50 was 202 nM.

**Q.** And the IC50 (PI3K-γ kinase (p110γ))?
**A.** The IC50 was 114 nM.

**Q.** What about the IC50 (MCF-7 cells) of the same molecule?
**A.** The IC50 was 258 nM.

**Q.** How did the IC50 (T47D cells) turn out when `CC(C)(c1cc(-c2cnc(N)cc2Cl)nc(N2CCOCC2)n1)S(C)(=O)=O` [Compound S-38, 4-chloro-5-(6-(2-(methylsulfonyl)prop-2-yl)-2-morpholinopyrimidin-4-yl)pyridin-2-amine] was run?
**A.** Its IC50 is 244 nM.

**Q.** What about the IC50 (PI3K-γ kinase (p110γ)) of the same molecule?
**A.** Its IC50 is 369 nM.

**Q.** And the IC50 (MCF-7 cells)?
**A.** Its IC50 is 180 nM.

**Q.** How did the IC50 (T47D cells) turn out when `C[C@H]1COCCN1c1nc(-c2cnc(N)cc2C(F)(F)F)cc(C(C)(C)S(C)(=O)=O)n1` [Compound S-41] was run?
**A.** The IC50 was 148 nM.

**Q.** What about the IC50 (PI3K-γ kinase (p110γ)) of the same molecule?
**A.** Its IC50 is 331 nM.

**Q.** And the IC50 (MCF-7 cells)?
**A.** Its IC50 is 170 nM.

**Q.** `CC(C)(c1cc(-c2cnc(N)nc2C(F)(F)F)nc(N2CCOCC2)n1)S(C)(=O)=O` [Compound S-45] was tested. Which IC50 (T47D cells) did it give?
**A.** The IC50 was 163 nM.

**Q.** What about the IC50 (PI3K-γ kinase (p110γ)) of the same molecule?
**A.** Its IC50 is 78 nM.

**Q.** And the IC50 (MCF-7 cells)?
**A.** Its IC50 is 329 nM.

**Q.** Which results are given for `CS(=O)(=O)C1(c2cc(-c3cnc(N)nc3C(F)(F)F)nc(N3CCOCC3)n2)CC1` [Compound S-46]?
**A.** IC50 (T47D cells): 137 nM; IC50 (PI3K-γ kinase (p110γ)): 96 nM; IC50 (MCF-7 cells): 301 nM
